Reference: publication PMC4085509, “Extended treatment of Cushing’s disease with pasireotide: results from a 2-year, Phase II study” (Pituitary, 2013)
Like-named read-outs stand apart in the source and are kept apart here. *1 amine or outer side, *2 acyl side, *3 side chain or, on linkers, in order; H or OH if unused. Where a SMILES comes first, the peptide text is derived from it. Side-chain parts run from the residue outwards. [ ]: non-standard residue; d: D form. The star is where a group is joined. Ethylenediamine = C(CN[*:2])N[*:1]; Hyp = O=C(O)[C@@H]1C[C@@H](O)CN1; Phg = N[C@H](C(=O)O)c1ccccc1; CO = O=C([*:1])[*:2]; Bn = c1ccc(C*)cc1

Assays:
plasma ACTH = assay: Plasma ACTH, Immulite 2000 ACTH kit, pre-morning-dose samples; format: in vivo, human; settings: Day 15, n=18, normal <10
Description: (§1) Blood samples for serum cortisol, plasma ACTH and pharmacokinetic assessments were collected before the morning pasireotide dose on study visit days. UFC assays were conducted in two central laboratories, one in Europe and the other in the US. Serum cortisol and plasma ACTH assays were assessed centrally by one laboratory (see Supplementary Material for further details).
(§2) Plasma ACTH was assayed with the Immulite® 2000 ACTH kit (DPC, Los Angeles, CA, USA), which has a lower limit of detection of 9 pg/mL (1.98 pmol/L) and intra- and inter-assay coefficients of variation of 7.7% and 8.5%, respectively. Pasireotide plasma concentrations were measured using a validated radioimmunoassay with an LLOQ of 150 pg/mL.

[1] = Trough plasma concentration of pasireotide, radioimmunoassay; format: in vivo, human; settings: for level at 4320 h: human, read-out: Ctrough, mean ± SD
Description: (§3) The primary efficacy outcome was the proportion of patients with normalized UFC levels after 6 months of treatment (normal UFC range: 55–276 nmol/24 h; 20–100 μg/24 h). Secondary objectives included assessment of the safety and tolerability of multiple doses of pasireotide and trough plasma concentrations of pasireotide after chronic dosing.
as §1, §2

sst3 = system: sst3; design: method as in PMID 11980628; settings: cited from earlier work
[2] = system: patients with Cushing's disease; assay: Electrocardiogram intervals; format: in vivo, human; settings: number of patients
Excerpt: (§4) Patient visits occurred every 2 weeks for the first 3 months and then every 3 months for assessments of UFC, serum cortisol, plasma ACTH, hematology, blood chemistry, HbA1c, electrocardiogram (ECG) and vital signs. Patients were referred to a diabetes specialist for evaluation and appropriate management if any of the following were present: […]

sst5 = system: sst5; design: method as in PMID 11980628; settings: cited from earlier work
serum cortisol = assay: Serum cortisol, ECLIA (Elecsys), pre-morning-dose samples; format: in vivo, human
Description: as §1
(§5) UFC levels were measured with two 24-hour urine specimens collected in the 48 hours prior to core baseline and at study visits during the extension study. Serum cortisol was measured with electrochemiluminescence immunoassay (ECLIA), using the Elecsys® cortisol reagent kit (Roche Diagnostics, Indianapolis, IN, USA), which has a lower limit of quantification (LLOQ) of […] (0.018 μg/dL) and intra- and inter-assay coefficients of variation of 1.2% and 1.4%, respectively. UFC levels were measured with ECLIA, using the Elecsys® cortisol reagent kit with prior dichloromethane extraction to reduce the amount of cortisol metabolites and conjugates.

sst1 = settings: cited from earlier work
[3] = system: urinary free cortisol (UFC); assay: 24-h urinary free cortisol (UFC), ECLIA after dichloromethane extraction, extension study; format: in vivo, human
Description: as §3
Patients were classified as ‘UFC responders’ if their mean UFC level at month 6 was in the normal range; as ‘UFC reducers’ if their mean UFC level at month 6 was lower than that at core study baseline but not within normal limits; and as ‘UFC non-reducers’ if their mean UFC level at month 6 was equal to or higher than that at core study baseline or if the mean UFC level at month 6 was missing. Patients who discontinued prior to month 6 were classified as non-responders.
as §1, §5

[4] = HbA1c and fasting plasma glucose monitoring; format: in vivo, human
Description: (§6) Safety was assessed by recording all AEs, as well as by regular monitoring of vital signs, physical condition, body weight, hematology and blood chemistry. HbA1c levels were recorded at extension baseline and then every 16 weeks. HbA1c categories were: <upper limit of normal (ULN; normal defined as <5.7 %), between the ULN and 7 %, between 7 and 9 %, and over 9 %.
as §4

[5] = system: urinary free cortisol (UFC); settings: 15-day core study, 600 μg sc bid, cited from earlier work
sst2 = system: sst2; design: method as in PMID 11980628; settings: cited from earlier work
[6] = system: patients with Cushing's disease; assay: Adverse events and discontinuations in the extension study; format: in vivo, human
Description: as §6

[7] = at some point during the extension, of six shifted
[8] = of 16 with normal FPG at extension baseline, at some point
[9] = safety population n=19, regardless of study-drug relationship

NCCCC[C@@H]1NC(=O)[C@@H](Cc2c[nH]c3ccccc23)NC(=O)[C@H](c2ccccc2)NC(=O)[C@@H]2C[C@@H](OC(=O)NCCN)CN2C(=O)[C@H](Cc2ccccc2)NC(=O)[C@H](Cc2ccc(OCc3ccccc3)cc2)NC1=O [pasireotide] (cyclo([Hyp]([CO-Ethylenediamine])[Phg][dW]KY(Bn)F))
Plasma ACTH, mean ± SD (plasma ACTH): 12.4 ± 8.9 pmol/L
Ctrough ([1]; Month 6, UFC non-reducers, n=1): 5.2 ng/mL
level at 4320 h ([1]; Month 6, UFC reducers, n=6, SD): 19.1 ± 10.9 ng/mL
level at 4320 h ([1]; Month 6, UFC responders, n=4, LLOQ 150 pg/mL, SD): 17.4 ± 11.6 ng/mL
Affinity for sst3 (sst3): high affinity
Newly occurring QT of 450–480 ms [2]: One patient
Newly occurring QTcB of 450–480 ms [2]: another patient
QRS interval of >110 ms (not clinically significant) [2]: one patient
Affinity for sst5 (sst5): highest affinity
Serum cortisol, mean ± SD (serum cortisol; Day 15, n=18, normal 221–690 (09:00 h)): 698 ± 161 nmol/L
Serum cortisol, mean ± SD (serum cortisol; Month 6, n=11): 559 ± 300 nmol/L
Affinity for sst1 (sst1): high affinity
UFC, mean ± SD ([3]; Day 15, n=17, primary efficacy population, normal 55–276): 522 ± 302 nmol/24 h
Proportion of patients with normal UFC levels (UFC responders) ([3]; Month 6, 4 of 18 patients, primary efficacy analysis, 95 % CI 6.4–47.6): 22.2%
Proportion of patients with reduction in mean UFC but not to within normal range (UFC reducers) ([3]; Month 6, 6 of 18 patients): 33.3%
Proportion of patients with lower UFC than at core baseline ([3]; Month 6, 10 of 18 patients): 56%
UFC, mean ± SD ([3]; Month 6, n=11, primary efficacy population): 421 ± 340 nmol/24 h
UFC, mean ± SD ([3]; Month 12, n=4, primary efficacy population): 398 ± 220 nmol/24 h
UFC, mean ± SD ([3]; Month 24, n=4, primary efficacy population): 514 ± 456 nmol/24 h
Number of patients with >50 % reduction in mean UFC from core baseline ([3]; Month 24, of four patients on study drug): three
Number of patients with normalized UFC ([3]; Month 24, of the four patients who remained on study drug): one
Patients with HbA1c shifted to a higher category with levels <7% [4, 7]: three
Patients with HbA1c shifted to between 7% and 9% [4, 7]: three
Patients with post-baseline HbA1c shifted to a higher category ([4]; at some point during the extension, eight with baseline values): Six
Shifts to levels of HbA1c >9% ([4]; during the extension): no shifts
Patients with an increase in fasting plasma glucose level at some point during the extension ([4]; in vivo): All patients
Patients with improved FPG levels at their last assessment ([4]; in vivo): All patients
Patients whose FPG shifted to between 100 and <126 mg/dL (5.6 to <7.0 mmol/L) [4, 8]: six
Patients whose FPG shifted to between 126 and <200 mg/dL (7.0 to <11.1 mmol/L) [4, 8]: four
Patients whose FPG shifted to ≥200 mg/dL (≥11.1 mmol/L) [4, 8]: six
Patients with HbA1c shifted to >ULN but <7% at last assessment ([4]; of five remaining higher): four
Patients with HbA1c shifted to between 7% and 9% at last assessment ([4]; of five remaining higher): one
Patients remaining at a higher post-baseline HbA1c level at last assessment ([4]; of the six shifted): Five
Proportion of patients with reduced UFC levels ([5]; 22/29 patients): 76%
Proportion of patients with normalized UFC ([5]; five patients): 17%
Affinity for sst2 (sst2): high affinity
Hyperglycemia-related AEs, proportion of patients ([6]; 13/19, treatment period): 68%
Deaths during the study ([6]; in vivo): No patients died
Patients with grade 4 AEs ([6]; increased γ-glutamyltransferase, type 2 diabetes mellitus, both suspected drug related): Two
Patients with at least one AE during the study ([6]; n=19): All patients
Patients reporting a hyperglycemia-related adverse event ([6]; of 19): Thirteen
Discontinuation because of AE (new-onset type 2 diabetes mellitus) ([6]; one of 19 patients): 5.3%
Adverse event: Abdominal pain [6, 9]: 9 (47.4) n (%)
Adverse event: Diarrhea [6, 9]: 13 (68.4) n (%)
Adverse event: Dizziness [6, 9]: 5 (26.3) n (%)
Adverse event: Fatigue [6, 9]: 5 (26.3) n (%)
Adverse event: Headache [6, 9]: 7 (36.8) n (%)
Adverse event: Hyperglycemia [6, 9]: 11 (57.9) n (%)
Adverse event: Injection-site pain [6, 9]: 6 (31.6) n (%)
Adverse event: Injection-site pruritus [6, 9]: 5 (26.3) n (%)
Adverse event: Nausea [6, 9]: 12 (63.2) n (%)
Discontinuation because of unsatisfactory therapeutic effect ([6]; three of 19 patients, after 5–10 months): 15.8%
Discontinuation because of abnormal laboratory value ([6]; two of 19 patients: one increased HbA1c and glucose, one elevated UFC): 10.5%
